Laboratory results reported in US20240246941A1, “SUBSTITUTED 4-(3-AMINOPROP-1-YL)AMINOQUINOLINE ANALOGS AS MODULATORS OF MELANOMA-ASSOCIATED ANTIGEN 11 UBIQUITIN LIGASE” (ST. JUDE CHILDREN'S RESEARCH HOSPITAL, INC., priority 2020, published 2024).

The molecules below were run against MAGE-A11:PCF11 (Homo sapiens (Human), UniProt P43364) (assay: TR-FRET single point screening at 15 μM). Settings: single point TR-FRET screening at 15 μM against MAGE-A11:PCF11.
Chain of MAGE-A11:PCF11 (P43364 218-429): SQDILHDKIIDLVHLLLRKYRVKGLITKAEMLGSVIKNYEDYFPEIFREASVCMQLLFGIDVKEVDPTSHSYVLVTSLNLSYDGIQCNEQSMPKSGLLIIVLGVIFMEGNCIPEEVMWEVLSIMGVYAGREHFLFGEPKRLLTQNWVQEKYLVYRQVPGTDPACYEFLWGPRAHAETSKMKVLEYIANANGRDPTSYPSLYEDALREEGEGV
Format: binding
Design: unit not given here
Summary of the method: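 Single-point screen at 15 μM (0.25% DMSO) measuring disruption of GST-MAGEA11 (5 nM) binding to FAM-PCF11_4 peptide (200 nM) detected by Tb-anti-GST (5 nM). Buffer 50 mM Tris pH 7.5, 20 mM MgCl2, 0.1 mg/ml BSA, 1 mM DTT; 90 min at ~25 °C; 520/490 nm ratio converted to % inhibition versus controls.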
`CCCCCCN1CCC(Nc2ccnc3cc(Cl)ccc23)CC1` [SJ000523108] was tested, and the TR-FRET signal was 29.3. In the case of `COc1ccc(OC(F)(F)F)cc1CN(CCCCNc1ccnc2cc(Cl)ccc12)Cc1ccccc1` [SJ000520447], the TR-FRET signal is reported as 26.66. For `Cc1ccc(S(=O)(=O)c2cnc3ccc(Cl)cc3c2N2CCN(c3ccccc3)CC2)cc1` [SJ000117050], the TR-FRET signal was −3.321. `Cc1ccc(S(=O)(=O)c2cnc3ccccc3c2N2CCN(c3ccc(C)cc3C)CC2)cc1` [SJ000117080] was tested, and the TR-FRET signal was 3.172. `CCCCN(CCC)CCCNc1c2ccc(Cl)cc2nc2ccc(OC)cc12` [SJ000522971] showed a TR-FRET signal of −286.9. `COc1ccc(C(F)(F)F)cc1CN(CCCCNc1ccnc2cc(Cl)ccc12)Cc1ccccc1` [SJ000520444] gave a TR-FRET signal of 31.82. `COc1ccccc1N1CCN(c2c(S(=O)(=O)c3ccc(C)cc3)cnc3ccc(C)cc23)CC1` [SJ000117066] gave a TR-FRET signal of −92.89. For `CCCN(CCCNc1c2ccc(Cl)cc2nc2ccc(OC)cc12)Cc1ccccc1C(=O)O` [SJ000520951], the TR-FRET signal was −258.6. Molecule `CCOC(=O)c1cnc2c(CC)cccc2c1NCCN1CCOCC1` [SJ000279714] has a TR-FRET signal of −6.103. In the case of `COc1ccc2nc3cc(Cl)ccc3c(NCCCNCc3cccc(C(F)(F)F)c3)c2c1` [SJ000520990], the TR-FRET signal is reported as −408.1. With `Clc1ccc2c(NCCCCN(Cc3ccccc3)Cc3ccoc3)ccnc2c1` [SJ000312685] the TR-FRET signal was 14.9. `CCCN(CCCNc1c2ccc(Cl)cc2nc2ccc(OC)cc12)Cc1cc(C)ccc1C` [SJ000520960] showed a TR-FRET signal of −119.3. `CCN1CCN(c2c(S(=O)(=O)c3ccc(C)cc3)cnc3ccc(OC)cc23)CC1` [SJ000083963] showed a TR-FRET signal of −3.917. `CCOC(=O)c1cnc2ccc(C(=O)O)cc2c1N1CCN(CCO)CC1` [SJ000280902] was tested, and the TR-FRET signal was −0.5958. In the case of `CN(C)c1cc(NC(=O)CN2CCOCC2)c2ccccc2n1` [SJ000111677], the TR-FRET signal is reported as 4.988. `O=S(=O)(c1ccccc1)c1cnc2ccc(Cl)cc2c1N1CCN(c2ccccc2)CC1` [SJ000083977] gave a TR-FRET signal of −15.7. `CCOC(=O)c1cnc2c(C)c(Cl)ccc2c1NCCN(C)C` [SJ000037393] gave a TR-FRET signal of −1.333. For `COc1ccc2nc3cc(Cl)ccc3c(NCCCNCc3ccc(F)cc3)c2c1` [SJ000523035], the TR-FRET signal was −398.2. `COc1ccc(F)c(CNCCCNc2c3ccc(Cl)cc3nc3ccc(OC)cc23)c1` [SJ000520998] gave a TR-FRET signal of −355. `O=[N+]([O-])c1ccccc1CN(CCCCNc1ccnc2cc(Cl)ccc12)Cc1ccccc1` [SJ000361200] was tested, and the TR-FRET signal was 17.21. `CN(C)CCNc1c2c(nc3ccccc13)CCC2` [SJ000013622] showed a TR-FRET signal of 3.285. `CCCN(CCCNc1c2ccc(Cl)cc2nc2ccc(OC)cc12)CC1CC1` [SJ000520936] was tested, and the TR-FRET signal was −271.4. Work on `CCc1ccc2ncc(C(=O)c3ccccc3)c(N3CCN(CC)CC3)c2c1` [SJ000247281] yielded a TR-FRET signal of −2.261. `Cn1ccnc1CN(CCCCNc1ccnc2cc(Cl)ccc12)Cc1ccccc1` [SJ000520435] gave a TR-FRET signal of 5.888. For `Clc1ccc2c(NCCCCN(Cc3ccccc3)Cc3cccc4c3OCO4)ccnc2c1` [SJ000520436], the TR-FRET signal was 21.65. In the case of `COc1ccc2nc3cc(Cl)ccc3c(NCCCNCc3c(F)cccc3OC)c2c1` [SJ000520915], the TR-FRET signal is reported as −298.8. Work on `COc1ccc2nc3cc(Cl)ccc3c(NCCCNCc3cc(C(F)(F)F)ccc3OC)c2c1` [SJ000521002] yielded a TR-FRET signal of −290.2. Molecule `CCCN(CCCNc1c2ccc(Cl)cc2nc2ccc(OC)cc12)Cc1cccc(OC)c1` [SJ000520961] has a TR-FRET signal of −244.6. `Fc1ccccc1CN(CCCCNc1ccnc2cc(Cl)ccc12)Cc1ccccc1` [SJ000361198] was tested, and the TR-FRET signal was 20.78. Work on `Cc1cc(NC(=O)CN2CCN(C)CC2)c2ccccc2n1` [SJ000111680] yielded a TR-FRET signal of 4.647. `COc1ccc(N2CCN(c3c(S(=O)(=O)c4ccc(Cl)cc4)cnc4ccc(C)cc34)CC2)cc1` [SJ000117075] was tested, and the TR-FRET signal was −3.122. With `CCOC(=O)c1cnc2ccc(OCC)cc2c1N1CCN(C)CC1` [SJ000279526] the TR-FRET signal was −7.064. For `COc1ccc2nc3cc(Cl)ccc3c(NCCCNCC3CC3)c2c1` [SJ000361087], the TR-FRET signal was −502.4. `CCCCCCN(CCC)CCCNc1c2ccc(Cl)cc2nc2ccc(OC)cc12` [SJ000520963] showed a TR-FRET signal of −153.7. With `CCOc1ccc2ncc(S(=O)(=O)c3ccc(C)cc3)c(N3CCN(c4ccc(F)cc4)CC3)c2c1` [SJ000117060] the TR-FRET signal was −11.07. `CCOC(=O)c1cnc2c(Cl)cccc2c1NCCN1CCOCC1` [SJ000163436] gave a TR-FRET signal of −6.529. `Cc1cc(C)c(CN(CCCCNc2ccnc3cc(Cl)ccc23)Cc2ccccc2)c(C)c1` [SJ000361193] was tested, and the TR-FRET signal was 26.03. `COc1ccc2nc3cc(Cl)ccc3c(NCCCNCc3ccncc3)c2c1` [SJ000523023] was tested, and the TR-FRET signal was −127.6. With `CCc1ccc2ncc(S(=O)(=O)c3ccc(C)c(C)c3)c(N3CCN(C)CC3)c2c1` [SJ000247332] the TR-FRET signal was 2.973. With `COc1ccc2nc3cc(Cl)ccc3c(NCCCNCc3cccnc3)c2c1` [SJ000520986] the TR-FRET signal was −409. In the case of `CCCN(CCCNc1c2ccc(Cl)cc2nc2ccc(OC)cc12)Cc1ccc([N+](=O)[O-])s1` [SJ000522735], the TR-FRET signal is reported as −154.4. In the case of `CCCN(CCCNc1c2ccc(Cl)cc2nc2ccc(OC)cc12)CCC(C)c1ccccc1` (centres unmarked) [SJ000522731], the TR-FRET signal is reported as −121. `Cc1ccc(CN(CCCCNc2ccnc3cc(Cl)ccc23)Cc2ccccc2)s1` [SJ000312687] gave a TR-FRET signal of 20.71.

Same assay, conditions: single point TR-FRET screening of quinoline compounds against MAGE-A11:PCF11; 15 μM
Work on `O=C(O)c1ccccc1CN(CCCNc1ccnc2cc(Cl)ccc12)Cc1ccccc1` [SJ000361180] yielded a TR-FRET signal of 9.598. Molecule `c1ccc(Cc2ccc3c(NCCCNCc4ccco4)ccnc3c2)cc1` [SJ000311306] has a TR-FRET signal of 64.54. For `FC(F)(F)c1ccc2c(NCCCNCc3nc4ccccc4s3)ccnc2c1` [SJ000521062], the TR-FRET signal was 14.43. `CCCN(CCCNc1ccnc2cc(C(F)(F)F)ccc12)Cc1ccc(OC)cc1` [SJ000361273] showed a TR-FRET signal of 22.9. `CCCN(CCCNc1ccnc2cc(C(F)(F)F)ccc12)Cc1cccs1` [SJ000361253] gave a TR-FRET signal of 19.53. Molecule `CCCN(CCCNc1ccnc2cc(C(F)(F)F)ccc12)Cc1cncc(Br)c1` [SJ000521007] has a TR-FRET signal of 4.323. With `O=[N+]([O-])c1ccc(CNCCCNc2ccnc3cc(Cl)ccc23)s1` [SJ000520912] the TR-FRET signal was 6.284. In the case of `Clc1ccc2c(NCCCNCC3CC3)ccnc2c1` [SJ000361101], the TR-FRET signal is reported as 11.47. Work on `Clc1ccc2c(NCCCN(Cc3ccccc3)Cc3cccnc3Br)ccnc2c1` [SJ000520462] yielded a TR-FRET signal of 9.715. For `Clc1ccc2c(NCCCN(Cc3ccccc3)Cc3ccsc3)ccnc2c1` [SJ000312675], the TR-FRET signal was 9.598. `Clc1ccc2c(NCCCN(CCOCc3ccccc3)Cc3ccccc3)ccnc2c1` [SJ000357583] gave a TR-FRET signal of 13.24. `Oc1ccccc1CN(CCCNc1ccnc2cc(Cl)ccc12)Cc1ccccc1` [SJ000361167] was tested, and the TR-FRET signal was 19.27. Work on `CCCN(CCCNc1c2ccc(Cl)cc2nc2ccc(OC)cc12)Cc1ccc(Cl)c([N+](=O)[O-])c1` [SJ000522738] yielded a TR-FRET signal of −71.03. For `Clc1ccc2c(NCCCN(Cc3ccccc3)Cc3cccs3)ccnc2c1` [SJ000312672], the TR-FRET signal was 4.744. In the case of `CCCN(CCCNc1ccnc2cc(C(F)(F)F)ccc12)Cc1nc(C)cs1` [SJ000521010], the TR-FRET signal is reported as 0.8927. `CCOC(=O)c1cnc2c(C(F)(F)F)cccc2c1NCCCN1CCOCC1` [SJ000131358] was tested, and the TR-FRET signal was 10.06. Work on `CCCCCNCCCNc1ccnc2cc(Cl)ccc12` [SJ000523057] yielded a TR-FRET signal of 25.82. Work on `CCCN(CCCNc1ccnc2cc(Cl)ccc12)Cc1[nH]cnc1C` [SJ000523010] yielded a TR-FRET signal of 12.05. `COc1ccc2nc3cc(Cl)ccc3c(NCCCNCc3c(Cl)ccc(Cl)c3Cl)c2c1` [SJ000522960] showed a TR-FRET signal of −81.49. Molecule `CC(C)CN(CCCNc1ccnc2cc(Cl)ccc12)Cc1ccccc1` [SJ000357468] has a TR-FRET signal of 18.75. In the case of `CCCN(CCCNc1ccnc2cc(Cl)ccc12)Cc1ccc(OC)cc1` [SJ000522756], the TR-FRET signal is reported as 19.14. With `CCC(C)CNCCCNc1ccnc2cc(C(F)(F)F)ccc12` (centres unmarked) [SJ000361112] the TR-FRET signal was 18.47. Work on `COc1ccc(-c2ccc3c(NCCCNCc4ccco4)ccnc3c2)cc1` [SJ000311294] yielded a TR-FRET signal of 7.824. `CCCN(CCCNc1ccnc2cc(Cl)ccc12)Cc1c2ccccc2cc2ccccc12` [SJ000522762] showed a TR-FRET signal of 15.49. For `CCCN(CCCNc1ccnc2cc(Cl)ccc12)Cc1cccc(F)c1` [SJ000522758], the TR-FRET signal was 27.42. Molecule `CCCCCCN(CCC)CCCNc1ccnc2cc(C(F)(F)F)ccc12` [SJ000523083] has a TR-FRET signal of 34.95. Work on `CCCN(CCCNc1ccnc2cc(C(F)(F)F)ccc12)Cc1csc2ccccc12` [SJ000520483] yielded a TR-FRET signal of 19.45. `CCCN(CCCNc1c2ccc(Cl)cc2nc2ccc(OC)cc12)Cc1cc(C(F)(F)F)ccc1OC` [SJ000522985] showed a TR-FRET signal of −46.02. Molecule `COc1ccccc1CN(CCCNc1ccnc2cc(Cl)ccc12)Cc1ccccc1` [SJ000522722] has a TR-FRET signal of 4.43. `CCCN(CCCNc1ccnc2cc(C(F)(F)F)ccc12)Cc1nccs1` [SJ000575189] was tested, and the TR-FRET signal was 8.665. `Clc1ccc2c(NCCCN(CCc3ccccc3)Cc3ccccc3)ccnc2c1` [SJ000357580] gave a TR-FRET signal of 14.41. `COc1ccc(CN(CCCNc2ccnc3cc(Cl)ccc23)Cc2ccccc2)cc1F` [SJ000520437] was tested, and the TR-FRET signal was 23.65. Work on `CCC(C)CN(CCCNc1ccnc2cc(Cl)ccc12)Cc1ccccc1` (centres unmarked) [SJ000361186] yielded a TR-FRET signal of 29.6. `COc1cc(Cc2ccc3c(NCCCNCc4ccco4)ccnc3c2)cc(OC)c1` [SJ000311310] was tested, and the TR-FRET signal was 23.79. With `CCCN(CCCNc1ccnc2cc(Cl)ccc12)Cc1ccc(CC)cc1` [SJ000523001] the TR-FRET signal was 30.13. Work on `CCCN(CCCNc1ccnc2cc(Cl)ccc12)Cc1ccc2[nH]ccc2c1` [SJ000522746] yielded a TR-FRET signal of 96.84. `c1ccc(-c2ccc3c(NCCCNCc4ccco4)ccnc3c2)cc1` [SJ000311282] showed a TR-FRET signal of 28.69.
